Assay results: patent US20080200403A1, “9A-Carbamoyl and Thiocarbamoyl Azalides with Anti-Inflammatory Activity” (GLAXOSMITHKLINE, priority 2005, published 2008)
Where two headings read alike, the source gives them in different places.

How the values were obtained:
Assay type in all cases: cell-based
[1] = tested on: human peripheral blood mononuclear cells (PBMC); assay: Human T-cell proliferation in vitro (3H-thymidine incorporation); conditions: Homo sapiens, PBMC, read-out: Percentage of inhibition of proliferation of stimulated PBMC; for inhibition at 10 µM: compound 10 μM; for inhibition at 50 µM: compound 50 μM
Method: Influence of substances at two different concentrations (50 μM and 10 μM) on cell proliferation of human peripheral blood mononuclear cells (PBMC) was assessed.
Heparinized peripheral blood was obtained from healthy donors, and PBMC were isolated by Histopaque 1077 (Sigma, USA) density centrifugation at 400×g for 30 minutes. 5×10^4 cells/well were cultured for 3 days in the RPMI medium as described above, in the presence (positive control) or absence (negative control) of stimulators [PHA (2.5 μg/mL) (Sigma, USA), or both PMA (10 ng/mL) (Sigma, USA) and ionomycin (500 ng/mL) (Calbiochem, USA)], and in the presence of the test compounds, at 37° C. in an atmosphere of 5% CO2 and 90% humidity. The cells were pulsed with 1 μCi of ^3H-thymidine (Amersham, USA) per well during the last 18 h of the culture, and were harvested on the 96-well filter (Packard Bioscience, USA) using a multiple cell harvester (Packard, USA). The incorporation of ^3H-thymidine in activated cells were measured using TopCount NXT (Packard, USA).
Inhibition (as percentage) was calculated using the following formula: % inhibition=(1−(^3H)thymidine incorporation expressed in counts per minute (cpm) in sample/(^3H)thymidine incorporation expressed in cpm in positive control)×100
where positive control refers to stimulated samples, not treated with substances.

[2] = tested on: IL-6; assay: Inhibition of IL-6 production by stimulated human peripheral blood leukocytes in vitro; conditions: Homo sapiens, Leukocyte, PBL, read-out: Percentage of inhibition of IL-6 production; for inhibition at 10 µM: compound 10 μM; for inhibition at 50 µM: compound 50 μM
Procedure, shortened: (§1)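 Dextran-isolated human PBL (3-5×10^6 per well) in RPMI with 10% FCS were preincubated 2 h at 37 °C with compounds at 50 μM or 10 μM final, then stimulated overnight with 2 μg/mL LPS, 1 μg/mL PMA or 120 μg/mL zymosan. Supernatant cytokines by sandwich ELISA; % inhibition versus stimulated untreated control.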

[3] = tested on: IL-1α; assay: Inhibition of IL-1 production by stimulated human peripheral blood leukocytes in vitro; conditions: Homo sapiens, Leukocyte, PBL, read-out: Percentage of inhibition of IL-1α production; for inhibition at 10 µM: compound 10 μM; for inhibition at 50 µM: compound 50 μM
[4] = tested on: IL-8; assay: Inhibition of IL-8 production by stimulated human peripheral blood leukocytes in vitro; conditions: Homo sapiens, Leukocyte, PBL, read-out: Percentage of inhibition of IL-8 production; for inhibition at 10 µM: compound 10 μM; for inhibition at 50 µM: compound 50 μM
Procedure, shortened: as §1

[5] = tested on: TNF-α; assay: Inhibition of TNF-α production by stimulated human peripheral blood leukocytes in vitro; conditions: Homo sapiens, Leukocyte, PBL, read-out: Percentage of inhibition of TNF-α production; for inhibition at 10 µM: compound 10 μM; for inhibition at 50 µM: compound 50 μM
Procedure, shortened: as §1

SMILES | inhibition at 10 µM ([1]; PHA stimulated) | inhibition at 50 µM ([1]; PHA stimulated) | inhibition at 10 µM ([1]; PMA + ionomycin stimulated) | inhibition at 50 µM ([1]; PMA + ionomycin stimulated) | inhibition at 10 µM ([2]; LPS stimulated) | inhibition at 50 µM ([2]; LPS stimulated) | inhibition at 10 µM ([2]; zymosan stimulated) | inhibition at 50 µM ([2]; zymosan stimulated) | inhibition at 10 µM ([3]; LPS stimulated) | inhibition at 50 µM ([3]; LPS stimulated) | inhibition at 10 µM ([3]; PMA stimulated) | inhibition at 50 µM ([3]; PMA stimulated) | inhibition at 10 µM ([3]; zymosan stimulated) | inhibition at 50 µM ([3]; zymosan stimulated) | inhibition at 10 µM ([4]; LPS stimulated) | inhibition at 50 µM ([4]; LPS stimulated) | inhibition at 10 µM ([4]; PMA stimulated) | inhibition at 50 µM ([4]; PMA stimulated) | inhibition at 10 µM ([4]; zymosan stimulated) | inhibition at 50 µM ([4]; zymosan stimulated) | other results
CC[C@H]1OC(=O)[C@H](C)[C@@H](O[C@H]2C[C@@](C)(OC)[C@@H](O)[C@H](C)O2)[C@H](C)[C@@H](O[C@@H]2O[C@H](C)C[C@H](N(C)C)[C@H]2O)[C@](C)(O)C[C@@H](C)CN(C(=S)Nc2ccccc2F)[C@H](C)[C@@H](O)[C@]1(C)O [Compound 5] | 0% | 72% | 20% | 87% | 64% | 72% | 66% | 88% | 41% | 10% | 14% | 14% | 27% | 41% | 16% | 42% | 23% | 69% | 20% | 46% | inhibition at 10 µM ([2]; PMA stimulated): 44%; inhibition at 50 µM ([2]; PMA stimulated): 60%; inhibition at 10 µM ([5]; LPS stimulated): 19%; inhibition at 50 µM ([5]; LPS stimulated): 45%; inhibition at 10 µM ([5]; PMA stimulated): 62%; inhibition at 50 µM ([5]; PMA stimulated): 85%; inhibition at 10 µM ([5]; zymosan stimulated): 49%; inhibition at 50 µM ([5]; zymosan stimulated): 76%
CC[C@H]1OC(=O)[C@H](C)[C@@H](O[C@H]2C[C@@](C)(OC)[C@@H](O)[C@H](C)O2)[C@H](C)[C@@H](O[C@@H]2O[C@H](C)C[C@H](N(C)C)[C@H]2O)[C@](C)(O)C[C@@H](C)CN(C(=S)Nc2cccc(C(F)(F)F)c2)[C@H](C)[C@@H](O)[C@]1(C)O [Compound 4] | 30% | 102% | 50% | 100% | 38% | 100% | 0% | 100% | 74% | 82% | 54% | 92% | 60% | 13% | 41% | 100% | 52% | 100% | 0% | 52% | inhibition at 10 µM ([5]; LPS stimulated): 39%; inhibition at 50 µM ([5]; LPS stimulated): 100%; inhibition at 10 µM ([5]; PMA stimulated): 50%; inhibition at 50 µM ([5]; PMA stimulated): 100%; inhibition at 10 µM ([5]; zymosan stimulated): 36%; inhibition at 50 µM ([5]; zymosan stimulated): 97%
